Measured values as given in patent US8853125B2, “Pyrazole compounds for controlling invertebrate pests” (BASF SE, priority 2008, dated 2014).

What was measured:
Format in all cases: in vivo
[1] = system: Cotton Aphid (aphis gossypii, Mixed Life Stages); assay: Cotton aphid, method a (cotyledon dip); conditions: 120 h, read-out: mortality in comparison with untreated controls
From the text: (§1) The active compounds were formulated in 50:50 (vol:vol) acetone:water and 100 ppm Kinetica™ surfactant.
Cotton plants at the cotyledon stage (one plant per pot) were infested by placing a heavily infested leaf from the main colony on top of each cotyledon. The aphids were allowed to transfer to the host plant overnight, and the leaf used to transfer the aphids was removed. The cotyledons were dipped in the test solution and allowed to dry. After 5 days, mortality counts were made.

[2] = system: Vetch Aphid (Megoura viciae); assay: Vetch aphid, bean leaf disks in microtiterplates; conditions: foliar, 144 h
Procedure: The active compounds were formulated in 1:3 (vol:vol) DMSO:water with different concentrations of formulated compounds.
Bean leaf disks were placed into microtiterplates filled with 0.8% agar-agar and 2.5 ppm OPUS™. The leaf disks were sprayed with 2.5 μl of the test solution and 5 to 8 adult aphids were placed into the microtiterplates which were then closed and kept at 23±1° C. and 50±5% relative humidity under fluorescent light for 6 days. Mortality was assessed on the basis of vital, reproduced aphids. Aphid mortality and fecundity was then visually assessed.

[3] = system: Green Peach Aphid (Myzus persicae, Mixed Life Stages); assay: Green peach aphid, method a (leaf dip, pepper plants); conditions: foliar, 120 h, read-out: mortality in comparison with untreated controls
From the text: as §1
Pepper plants in the 2nd leaf-pair stage (variety ‘California Wonder’) were infested with approximately 40 laboratory-reared aphids by placing infested leaf sections on top of the test plants. The leaf sections were removed after 24 hr. The leaves of the intact plants were dipped into gradient solutions of the test compound and allowed to dry. Test plants were maintained under fluorescent light (24 hour photoperiod) at about 25° C. and 20-40% relative humidity. Aphid mortality on the treated plants, relative to mortality on check plants, was determined after 5 days.

[4] = system: Cowpea Aphid (aphis craccivora); assay: Cowpea aphid, sprayed potted cowpea plants; conditions: read-out: mortality in comparison with untreated controls
Procedure: The active compounds were formulated in 50:50 (vol:vol) acetone:water. The test solution was prepared at the day of use.
Potted cowpea plants colonized with 100-150 aphids of various stages were sprayed after the pest population had been recorded. Population reduction was assessed after 24, 72, and 120 hours.

## CN1CCn2ncc(C(=O)Nc3cccnc3)c2C1 [Compound 13, N-(pyridine-3-yl)-5-methyl-4,5,6,7-tetrahydropyrazolo-[1,5-a]pyrazine-3-carboxamide]
[1]
  mortality at 300 ppm: ≥ 75%
[2]
  mortality at 2500 µg/mL: ≥ 90%
[3]
  mortality at 300 ppm: ≥ 75%
[4]
  mortality at 300 ppm: ≥ 75%
